Laboratory results reported in PubChem BioAssay AID1918939 (Molecular Pharmacology Branch, DTP, NCI, 2023).
Values joined by “and” are separate entries in the source; they are usually repeats but may differ in a detail not shown here. Equal entries are not always repeated.

Tested on: 653999-131-R-J2-PDC complex spheroid viability
Assay: Anticancer human tumor 653999-131-R-J2-PDC patient-derived lung adenocarcinoma cell line growth inhibition
Details: for viability, T/C: stronger effect = lower value
How it was run: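 Drug combinations with the LSD1 inhibitor iadademstat tested on tumor cells co-cultured as spheroids with endothelial cells and mesenchymal stem cells. Concentrations descended in half-log increments from clinical Cmax or 10 microM.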

[1] = curve of first compound, second compound 0.1 µM
[2] = curve of first compound, second compound 0.316 µM
[3] = curve of first compound, second compound 1 µM
[4] = curve of first compound, second compound 3.16 µM
[5] = curve of first compound, second compound 10 µM
[6] = second compound 0.1 µM, first compound 0.00949 µM
[7] = second compound 0.1 µM, first compound 0.03 µM
[8] = second compound 0.1 µM, first compound 0.0949 µM
[9] = second compound 0.1 µM, first compound 0.3 µM
[10] = second compound 0.1 µM, first compound 0.949 µM
[11] = second compound 0.1 µM, first compound 3 µM
[12] = second compound 0.316 µM, first compound 0.00949 µM
[13] = second compound 0.316 µM, first compound 0.03 µM
[14] = second compound 0.316 µM, first compound 0.0949 µM
[15] = second compound 0.316 µM, first compound 0.3 µM
[16] = second compound 0.316 µM, first compound 0.949 µM
[17] = second compound 0.316 µM, first compound 3 µM
[18] = second compound 1 µM, first compound 0.00949 µM
[19] = second compound 1 µM, first compound 0.03 µM
[20] = second compound 1 µM, first compound 0.0949 µM
[21] = second compound 1 µM, first compound 0.3 µM
[22] = second compound 1 µM, first compound 0.949 µM
[23] = second compound 1 µM, first compound 3 µM
[24] = second compound 3.16 µM, first compound 0.00949 µM
[25] = second compound 3.16 µM, first compound 0.03 µM
[26] = second compound 3.16 µM, first compound 0.0949 µM
[27] = second compound 3.16 µM, first compound 0.3 µM
[28] = second compound 3.16 µM, first compound 0.949 µM
[29] = second compound 3.16 µM, first compound 3 µM
[30] = second compound 10 µM, first compound 0.00949 µM
[31] = second compound 10 µM, first compound 0.03 µM
[32] = second compound 10 µM, first compound 0.0949 µM
[33] = second compound 10 µM, first compound 0.3 µM
[34] = second compound 10 µM, first compound 0.949 µM
[35] = second compound 10 µM, first compound 3 µM
[36] = second compound 0.1 µM, first compound 0.00316 µM
[37] = second compound 0.1 µM, first compound 0.01 µM
[38] = second compound 0.1 µM, first compound 0.0316 µM
[39] = second compound 0.1 µM, first compound 0.1 µM
[40] = second compound 0.316 µM, first compound 0.00316 µM
[41] = second compound 0.316 µM, first compound 0.01 µM
[42] = second compound 0.316 µM, first compound 0.0316 µM
[43] = second compound 0.316 µM, first compound 0.1 µM
[44] = second compound 1 µM, first compound 0.00316 µM
[45] = second compound 1 µM, first compound 0.01 µM
[46] = second compound 1 µM, first compound 0.0316 µM
[47] = second compound 1 µM, first compound 0.1 µM
[48] = second compound 3.16 µM, first compound 0.00316 µM
[49] = second compound 3.16 µM, first compound 0.01 µM
[50] = second compound 3.16 µM, first compound 0.0316 µM
[51] = second compound 3.16 µM, first compound 0.1 µM
[52] = second compound 10 µM, first compound 0.00316 µM
[53] = second compound 10 µM, first compound 0.01 µM
[54] = second compound 10 µM, first compound 0.0316 µM
[55] = second compound 10 µM, first compound 0.1 µM
[56] = second compound 0.1 µM, first compound 0.316 µM
[57] = second compound 0.1 µM, first compound 1 µM
[58] = second compound 0.316 µM, first compound 0.316 µM
[59] = second compound 0.316 µM, first compound 1 µM
[60] = second compound 1 µM, first compound 0.316 µM
[61] = second compound 1 µM, first compound 1 µM
[62] = second compound 3.16 µM, first compound 0.316 µM
[63] = second compound 3.16 µM, first compound 1 µM
[64] = second compound 10 µM, first compound 0.316 µM
[65] = second compound 10 µM, first compound 1 µM
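Also: spheroids exposed to agents for seven days before readout.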

NS(=O)(=O)OCC1CC(n2ccc3c(NC4CCc5ccccc54)ncnc32)CC1O (configuration not stated) + NC1CCC(NC2CC2c2ccccc2)CC1
IC50 [1]: > 3 µM
IC50 [2]: > 3 µM
IC50 [3]: > 3 µM
IC50 [4]: > 3 µM
IC50 [5]: > 3 µM
viability, T/C [6]: 97.5%
viability, T/C [7]: 80.8%
viability, T/C [8]: 106%
viability, T/C [9]: 107%
viability, T/C [10]: 54.7%
viability, T/C [11]: 61.1%
viability, T/C [12]: 97.8%
viability, T/C [13]: 81.6%
viability, T/C [14]: 105%
viability, T/C [15]: 114%
viability, T/C [16]: 55.6%
viability, T/C [17]: 50.7%
viability, T/C [18]: 94.4%
viability, T/C [19]: 92.8%
viability, T/C [20]: 91.2%
viability, T/C [21]: 116%
viability, T/C [22]: 60.5%
viability, T/C [23]: 56.2%
viability, T/C [24]: 105%
viability, T/C [25]: 98.7%
viability, T/C [26]: 100%
viability, T/C [27]: 105%
viability, T/C [28]: 58.6%
viability, T/C [29]: 59.2%
viability, T/C [30]: 116%
viability, T/C [31]: 101%
viability, T/C [32]: 105%
viability, T/C [33]: 118%
viability, T/C [34]: 63.7%
viability, T/C [35]: 54.2%

CC[C@@]1(O)C(=O)OCc2c1cc1n(c2=O)Cc2cc3c(CN(C)C)c(O)ccc3nc2-1 + NC1CC1c1ccc(-c2cccc(O)c2)cc1
IC50 [1]: 0.0116 µM
IC50 [2]: 0.0092 µM
IC50 [3]: 0.00932 µM
IC50 [4]: 0.0113 µM
IC50 [5]: 0.0139 µM
viability, T/C (second compound 0.1 µM, first compound 0.000316 µM): 114%
viability, T/C (second compound 0.1 µM, first compound 0.001 µM): 92.8%
viability, T/C [36]: 85%
viability, T/C [37]: 49.6%
viability, T/C [38]: 33.6%
viability, T/C [39]: 27.9%
viability, T/C (second compound 0.316 µM, first compound 0.000316 µM): 111%
viability, T/C (second compound 0.316 µM, first compound 0.001 µM): 108%
viability, T/C [40]: 83.8%
viability, T/C [41]: 45.6%
viability, T/C [42]: 35.6%
viability, T/C [43]: 23.2%
viability, T/C (second compound 1 µM, first compound 0.000316 µM): 82.6%
viability, T/C (second compound 1 µM, first compound 0.001 µM): 101%
viability, T/C [44]: 79.6%
viability, T/C [45]: 47.4%
viability, T/C [46]: 35.8%
viability, T/C [47]: 25.5%
viability, T/C (second compound 3.16 µM, first compound 0.000316 µM): 91.6%
viability, T/C (second compound 3.16 µM, first compound 0.001 µM): 85.8%
viability, T/C [48]: 87.1%
viability, T/C [49]: 52%
viability, T/C [50]: 31.9%
viability, T/C [51]: 27.9%
viability, T/C (second compound 10 µM, first compound 0.000316 µM): 86.9%
viability, T/C (second compound 10 µM, first compound 0.001 µM): 87.6%
viability, T/C [52]: 80.7%
viability, T/C [53]: 54.9%
viability, T/C [54]: 36.1%
viability, T/C [55]: 26.4%

CC1COCCN1c1cc(-c2ccnn2C)c2ccnc(-c3ccn[nH]3)c2n1 (configuration not stated) + NC1CC1c1ccc(-c2cccc(O)c2)cc1
IC50 [1]: 0.00531 µM
IC50 [2]: < 0.00316 µM
IC50 [3]: < 0.00316 µM
IC50 [4]: < 0.00316 µM
IC50 [5]: < 0.00316 µM
viability, T/C [36]: 52%
viability, T/C [37]: 50%
viability, T/C [38]: 44.3%
viability, T/C [39]: 29.7%
viability, T/C [56]: 42.7%
viability, T/C [57]: 45.7%
viability, T/C [40]: 47.7%
viability, T/C [41]: 44.4%
viability, T/C [42]: 36.7%
viability, T/C [43]: 36.6%
viability, T/C [58]: 36.1%
viability, T/C [59]: 48.5%
viability, T/C [44]: 45.5%
viability, T/C [45]: 47%
viability, T/C [46]: 36.8%
viability, T/C [47]: 32.7%
viability, T/C [60]: 31%
viability, T/C [61]: 36.3%
viability, T/C [48]: 49.5%
viability, T/C [49]: 45.5%
viability, T/C [50]: 36.5%
viability, T/C [51]: 28.8%
viability, T/C [62]: 36.1%
viability, T/C [63]: 39.7%
viability, T/C [52]: 47.5%
viability, T/C [53]: 46.6%
viability, T/C [54]: 39.5%
viability, T/C [55]: 29%
viability, T/C [64]: 29.7%
viability, T/C [65]: 34.7%

CC1COCCN1c1cc(-c2ccnn2C)c2ccnc(-c3ccn[nH]3)c2n1 (configuration not stated)
viability, T/C (compound 0.00316 µM): 81.7% and 58.4%
viability, T/C (compound 0.01 µM): 66.4% and 56.5%
viability, T/C (compound 0.0316 µM): 36.3% and 41.4%
viability, T/C (compound 0.1 µM): 31.9% and 35.9%
viability, T/C (compound 0.316 µM): 29.8% and 45.5%
viability, T/C (compound 1 µM): 30.5% and 53.4%
IC50 (curve of compound): 0.0188 µM and 0.0182 µM

CC(C)c1c(-c2ccccc2)nc2c(C#N)c[nH]n2c1=O + NC1CC1c1ccc(-c2cccc(O)c2)cc1
IC50 [1]: > 10 µM
IC50 [2]: > 10 µM
IC50 [3]: > 10 µM
IC50 [4]: > 10 µM
IC50 [5]: > 10 µM
viability, T/C [38]: 87.3%
viability, T/C [39]: 96.5%
viability, T/C [56]: 89.1%
viability, T/C [57]: 76.9%
viability, T/C (second compound 0.1 µM, first compound 3.16 µM): 80.1%
viability, T/C (second compound 0.1 µM, first compound 10 µM): 80.5%
viability, T/C [42]: 84%
viability, T/C [43]: 83.7%
viability, T/C [58]: 90.9%
viability, T/C [59]: 74.8%
viability, T/C (second compound 0.316 µM, first compound 3.16 µM): 64.2%
viability, T/C (second compound 0.316 µM, first compound 10 µM): 66.2%
viability, T/C [46]: 73.1%
viability, T/C [47]: 87.2%
viability, T/C [60]: 86.1%
viability, T/C [61]: 77.8%
viability, T/C (second compound 1 µM, first compound 3.16 µM): 66.7%
viability, T/C (second compound 1 µM, first compound 10 µM): 72.2%
viability, T/C [50]: 84.2%
viability, T/C [51]: 72.5%
viability, T/C [62]: 80.2%
viability, T/C [63]: 68.7%
viability, T/C (second compound 3.16 µM, first compound 3.16 µM): 77.5%
viability, T/C (second compound 3.16 µM, first compound 10 µM): 76.8%
viability, T/C [54]: 80.8%
viability, T/C [55]: 73.8%
viability, T/C [64]: 77.4%
viability, T/C [65]: 76.5%
viability, T/C (second compound 10 µM, first compound 3.16 µM): 68.9%
viability, T/C (second compound 10 µM, first compound 10 µM): 65.6%

O=C(C=Cc1cccc(S(=O)(=O)Nc2ccccc2)c1)NO + NC1CCC(NC2CC2c2ccccc2)CC1
IC50 [1]: 0.435 µM
IC50 [2]: 0.538 µM
IC50 [3]: 0.513 µM
IC50 [4]: 0.501 µM
IC50 [5]: 0.449 µM
viability, T/C [6]: 81.9%
viability, T/C [7]: 97.9%
viability, T/C [8]: 108%
viability, T/C [9]: 56.1%
viability, T/C [10]: 28.6%
viability, T/C [11]: 3.54%
viability, T/C [12]: 89.3%
viability, T/C [13]: 82.6%
viability, T/C [14]: 91.4%
viability, T/C [15]: 70.3%
viability, T/C [16]: 29.3%
viability, T/C [17]: 3.12%
viability, T/C [18]: 96.4%
viability, T/C [19]: 100%
viability, T/C [20]: 88.3%
viability, T/C [21]: 71.6%
viability, T/C [22]: 26.2%
viability, T/C [23]: 2.35%
viability, T/C [24]: 98.4%
viability, T/C [25]: 83.1%
viability, T/C [26]: 92.4%
viability, T/C [27]: 61.9%
viability, T/C [28]: 32.3%
viability, T/C [29]: 2.77%
viability, T/C [30]: 95.4%
viability, T/C [31]: 96%
viability, T/C [32]: 101%
viability, T/C [33]: 60.3%
viability, T/C [34]: 25.8%
viability, T/C [35]: 3.12%
